Data taken from patent US10336733B2, “Aryl acylsulfonamides as BLT1 antagonists” (Merck Sharp & Dohme Corp., priority 2015, dated 2019).

Molecular target: human BLT1 receptor (Homo sapiens (Human), UniProt Q15722)
Experiment: BLT-1 cAMP Assay
Format: cell-based
Conditions: antagonist mode; HEK293 cells recombinantly expressing human BLT1 receptor; forskolin 4 μM and LTB4 2 nM; cAMP detection
Protocol: The ability of compounds to antagonize the human BLT1 receptor was determined using a kit to measure changes in intracellular cyclic AMP levels (cAMP dynamic assay kit, Cisbio Cat. No. 62AM4PEC). HEK293 cells recombinantly expressing human BLT1 receptor, previously frozen in Recovery Medium (Life Technologies, Cat. No. 12648-010) were thawed and diluted into assay medium (HBSS (Hyclone SH 30268.01), 20 mM HEPES (Gibco 15630-106), 800 μM IBMX (Sigma I5879), 0.1% DTPA BSA (Perkin Elmer CR84-100)). The cell suspension was centrifuged at 200×g for 10 min and then resuspended in fresh assay medium to a density of 2.5×10^5 cells/mL. A Labcyte Echo 550 acoustic dispenser was used to transfer 25 nL of test compound dissolved in DMSO into the wells of a dry 384-well plate (Greiner 784075). All subsequent liquid additions were performed using a BIORAPTR (FRD; Beckman Coulter). Next, 5 μL of cell suspension was added and incubated for 20 min. at 37° C. and 5% CO2 in a humidified plastic tray. To test for agonist activity […] of assay buffer containing forskolin (Sigma F-6886. 4 μM for BLT1) was added and incubated for 30 minutes at 37° C. and 5% CO2 in a humidified plastic tray. To test for antagonist activity 5 μL of assay buffer containing forskolin (Sigma F-6886. 4 μM for BLT1) and either LTB4 (Sigma Aldrich L0517; 2 nM BLT1) was added and incubated for 30 minutes at 37° C. and 5% CO2 in a humidified plastic tray.
The levels of cAMP were detected using the CisBio kit following the manufacturer's instructions: cAMP-d2 vial was reconstituted with distilled water and then diluted accordingly with conjugate & lysis buffer. 5 μL of cAMP-d2 working solution was added to all of the wells of the assay plate. cAMP-Cryptate vial was reconstituted with distilled water and then diluted accordingly with conjugate & lysis buffer. 5 μL of cAMP-Cryptate working solution were added to the assay plate. The assay plate was shaken for 3 minutes and incubated at room temperature for 45 minutes, then read on Perkin Elmer Envision. cAMP standard curve and fit data were plotted using a 4 parameter dose response curve fitting algorithm to fit curve. A 4-parameter curve fit (Max, min, log EC50 and slope) was used to transform fluorescent 665 nm/615 nm ratio signal to cAMP concentration. After normalization to treated and untreated controls, the percent effect of signal at each compound concentration was calculated. The plot of percent effect versus the log of compound concentration was fit with a 4-parameter concentration response equation to calculate EC50 values. Compound concentrations tested were 10 000, 3 333, 1 111, 370.4, 123.4, 41.2, 13.7, 4.6, 1.5 and 0.5 nM with 0.25% residual DMSO.

human BLT1 receptor, sequence (Q15722 whole entry): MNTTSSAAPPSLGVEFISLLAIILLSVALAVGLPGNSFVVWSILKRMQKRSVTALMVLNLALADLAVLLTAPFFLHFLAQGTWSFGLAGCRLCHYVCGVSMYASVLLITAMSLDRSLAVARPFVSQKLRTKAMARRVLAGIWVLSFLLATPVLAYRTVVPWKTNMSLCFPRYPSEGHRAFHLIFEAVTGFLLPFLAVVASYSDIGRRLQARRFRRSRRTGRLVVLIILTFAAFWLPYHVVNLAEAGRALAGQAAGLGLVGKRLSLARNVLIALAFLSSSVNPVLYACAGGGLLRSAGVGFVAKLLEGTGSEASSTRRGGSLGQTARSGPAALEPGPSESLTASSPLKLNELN

EC50 [nM]	Structure (SMILES)
81	CCn1nccc1C[C@@H]1COc2cc(-c3ccccc3C(=O)NS(=O)(=O)C(C)(C)C)ccc2[C@H]1O (racemic) [Example 36, N-(tert-Butylsulfonyl)-2-((rac-trans)-3-((1-ethyl-1H-pyrazol-5-yl)methyl)-4-hydroxychroman-7-yl)benzamide]
144	CC(C)(C)S(=O)(=O)NC(=O)c1ccccc1-c1ccc2c(c1)OC[C@@H](Cc1ccccn1)[C@@H]2O (single isomer, unassigned) [Example 11, N-(tert-Butylsulfonyl)-2-((3R,4S or 3S,4R)-4-hydroxy-3-(pyridin-2-ylmethyl)chroman-7-yl)benzamide]
9	CC(C)(C)S(=O)(=O)NC(=O)c1ccccc1-c1ccc2c(c1)OC[C@H](Cc1cscn1)[C@H]2O (single isomer, unassigned) [Example 34, N-(tert-Butylsulfonyl)-2-((3S,4R or 3R,4S)-4-hydroxy-3-(thiazol-4-ylmethyl)chroman-7-yl)benzamide]
48	O=C(NS(=O)(=O)C1CCCC1)c1ccccc1-c1ccc2c(c1)OCC(Cc1ccccn1)C2O (stereo not drawn) [Example 19, N-(Cyclopentylsulfonyl)-2-((3,4-trans)-4-hydroxy-3-(pyridin-2-ylmethyl)chroman-7-yl)benzamide]
93	CS(=O)(=O)NC(=O)c1ccc(F)cc1-c1ccc2c(c1)OC[C@H](Cc1ccccn1)[C@H]2O (single isomer, unassigned) [Example 4, 4-Fluoro-2-((3S,4R or 3R,4S)-4-hydroxy-3-(pyridin-2-ylmethyl)chroman-7-yl)-N-(methylsulfonyl)benzamide]
1720	CS(=O)(=O)NC(=O)c1ccc(F)cc1-c1ccc2c(c1)OC[C@@H](Cc1ccccn1)[C@@H]2O (single isomer, unassigned) [Example 3, 4-Fluoro-2-((3R,4S or 3S,4R)-4-hydroxy-3-(pyridin-2-ylmethyl)chroman-7-yl)-N-(methylsulfonyl)benzamide]
19	CC1(S(=O)(=O)NC(=O)c2ccccc2-c2ccc3c(c2)OC[C@@H](Cc2coc(-c4ccccc4)n2)[C@@H]3O)CC1 (racemic) [Example 43, 2-(Rac-trans)-4-hydroxy-3-((2-phenyloxazol-4-yl)methy)chroman-7-yl)-N-((1-methylcyclopropyl)sulfonyl)benzamide]
75	CC(C)(C)S(=O)(=O)NC(=O)c1ccccc1-c1ccc2c(c1)OC[C@@H](Cc1coc(-c3ccccc3)n1)[C@@H]2O (single isomer, unassigned) [Example 47, N-(tert-Butylsulfonyl)-2-((3R,4S or 3S,4R)-4-hydroxy-3-((2-phenyloxazol-4-yl)methyl)chroman-7-yl)benzamide]
44	CC(C)(C)CS(=O)(=O)NC(=O)c1ccccc1-c1ccc2c(c1)OCC(Cc1ccccn1)C2O (stereo not drawn) [Example 20, 2-((3,4-trans)-4-Hydroxy-3-(pyridin-2-ylmethyl)chroman-7-yl)-N-(neopentylsulfonyl)benzamide]
5	CC(C)(C)S(=O)(=O)NC(=O)c1ccccc1-c1ccc2c(c1)OC[C@H](Cc1coc(-c3ccccc3)n1)[C@H]2O (single isomer, unassigned) [Example 48, N-(tert-Butylsulfonyl)-2-((3S,4R or 3R,4S)-4-hydroxy-3-((2-phenyloxazol-4-yl)methyl)chroman-7-yl)benzamide]
36	CCn1nccc1C[C@H]1COc2cc(-c3ccccc3C(=O)NS(=O)(=O)C(C)(C)C)ccc2[C@@H]1O (single isomer, unassigned) [Example 37, N-(tert-Butylsulfonyl)-2-((3S,4R or 3R,4S)-3-((1-ethyl-1H-pyrazol-5-yl)methyl)-4-hydroxychroman-7-yl)benzamide]
95	Cn1nccc1C[C@@H]1COc2cc(-c3ccccc3C(=O)NS(=O)(=O)C(C)(C)C)ccc2[C@H]1O (racemic) [Example 35, N-(tert-Butylsulfonyl)-2-((rac-trans)-4-hydroxy-3-((1-methyl-1H-pyrazol-5-yl)methyl)chroman-7-yl)benzamide]
28	O=C(NS(=O)(=O)C1CC1)c1ccccc1-c1ccc2c(c1)OC[C@H](Cc1ccccn1)[C@H]2O (single isomer, unassigned) [Example 6, N-(Cyclopropylsulfonyl)-2-((3S,4R or 3R,4S)-4-hydroxy-3-(pyridin-2-ylmethyl)chroman-7-yl)benzamide]
22	CC1(S(=O)(=O)NC(=O)c2ccccc2-c2ccc3c(c2)OC[C@H](Cc2ccccn2)[C@H]3O)CC1 (single isomer, unassigned) [Example 8, 2-((3S,4R or 3R,4S)-4-Hydroxy-3-(pyridin-2-ylmethyl)chroman-7-yl)-N-((1-methylcyclopropyl)sulfonyl)benzamide]
2	CC(C)(C)S(=O)(=O)NC(=O)c1ccc(F)cc1-c1ccc2c(c1)OC[C@H](Cc1ccccn1)[C@H]2O (single isomer, unassigned) [Example 14, N-(tert-Butylsulfonyl)-4-fluoro-2-((3S,4R or 3R,4S)-4-hydroxy-3-(pyridin-2-ylmethyl)chroman-7-yl)benzamide]
24	CC(C)CS(=O)(=O)NC(=O)c1ccccc1-c1ccc2c(c1)OCC(Cc1ccccn1)C2O (stereo not drawn) [Example 17, 2-((3,4-trans)-4-Hydroxy-3-(pyridin-2-ylmethyl)chroman-7-yl)-N-(isobutylsulfonyl)benzamide]
360	Cn1nccc1C[C@@H]1COc2cc(-c3ccccc3C(=O)NS(=O)(=O)C3(C)CC3)ccc2[C@H]1O (racemic) [Example 28, 2-(Rac-trans)-4-Hydroxy-3-((1-methyl-1H-pyrazol-5-yl)methyl)chroman-7-yl)-N-((1-methylcyclopropyl)sulfonyl)benzamide]
441	CC(C)(C)S(=O)(=O)NC(=O)c1ccc(F)cc1-c1ccc2c(c1)OC[C@@H](Cc1ccccn1)[C@@H]2O (single isomer, unassigned) [Example 13, N-(tert-Butylsulfonyl)-4-fluoro-2-((3R,4S or 3S,4R)-4-hydroxy-3-(pyridin-2-ylmethyl)chroman-7-yl)benzamide]

Structure (SMILES)	EC50 [nM]
C[C@@H](c1ccccn1)C1COc2cc(-c3ccccc3C(=O)NS(=O)(=O)C3(C)CC3)ccc2C1O (stereo in doubt) [Example 49, 2-((3,4-trans)-4-Hydroxy-3-((R)-1-(pyridin-2-yl)ethyl)chroman-7-yl)-N-((1-methylcyclopropyl)sulfonyl)benzamide]	154
CC1(S(=O)(=O)NC(=O)c2ccccc2-c2ccc3c(c2)OCC(Cc2coc(-c4ccccc4)n2)C3O)CC1 (racemic) [Example 46, 2-(Rac-trans)-4-Hydroxy-3-((2-phenyloxazol-4-yl)methyl)chroman-7-yl)-N-((1-methylcyclopropyl)sulfonyl)benzamide]	15
CC1(S(=O)(=O)NC(=O)c2ccccc2-c2ccc3c(c2)OC[C@H](Cc2cscn2)[C@H]3O)CC1 (racemic) [Example 25, 2-(Rac-trans)-4-Hydroxy-3-(thiazol-4-ylmethyl)chroman-7-yl)-N-((1-methylcyclopropyl)sulfonyl)benzamide]	16
C[C@H](c1ccccn1)C1COc2cc(-c3ccccc3C(=O)NS(=O)(=O)C3(C)CC3)ccc2C1O (stereo in doubt) [Example 50, 2-((3,4-trans)-4-Hydroxy-3-((S)-1-(pyridin-2-yl)ethyl)chroman-7-yl)-N-((1-methylcyclopropyl)sulfonyl)benzamide]	67
CC1(S(=O)(=O)NC(=O)c2ccccc2-c2ccc3c(c2)OC[C@H](Cc2cscn2)[C@H]3O)CC1 (single isomer, unassigned) [Example 27, 2-((3S, 4R or 3R,4S)-4-hydroxy-3-(thiazol-4-ylmethyl)chroman-7-yl)-N-((1-methylcyclopropyl)sulfonyl)benzamide]	26
O=C(NS(=O)(=O)C(F)(F)F)c1ccc(F)cc1-c1ccc2c(c1)OC[C@@H](Cc1ccc(-c3ccccc3)cc1)[C@@H]2O (single isomer, unassigned) [Example 41, 2-((3R,4S or 3S,4R)-3-([1,1′-Biphenyl]-4-ylmethyl)-4-hydroxychroman-7-yl)-4-fluoro-N-((trifluoromethyl)sulfonyl)benzamide]	11
